Assay results published in patent US12054497B2, “Substituted heterocyclic fused cyclic compound, preparation method therefor and pharmaceutical use thereof” (GENFLEET THERAPEUTICS (SHANGHAI) INC., priority 2019, dated 2024).

Tests used:
[1] = system: NCI-H358 cells with Kras G12C mutation; test: Cell proliferation inhibition experiment, 3D spheroid, CellTiter-Glo (Test Example 1); format: cell-based, human; conditions: 5 days
In short: (§1)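 NCI-H358 (800 cells/well) and A549 (400 cells/well) grown overnight as 3D spheroids in 2% FBS medium, then exposed to compound dilution series (3.16-fold, 0.1% DMSO) for 5 days. CellTiter-Glo luminescence read; inhibition relative to DMSO and blank, IC50 by four-parameter fit.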

[2] = system: A549 cells with Kras G12S mutation; test: as above; format: cell-based, human; conditions: 5 days
In short: as §1

[3] = Pharmacokinetic evaluation on mice, intragastric (PO) administration (Test Example 6); format: in vivo; conditions: mouse, plasma, PO 15 mg/kg, male CD-1 mice; for bioavailability: read-out: F (bioavailability); for Cmax: read-out: Cmax; for Tmax: read-out: Tmax
Description: (§2) Experimental objective: male CD-1 mice were chosen as tested animals, and the LC-MS-MS method was employed to measure the concentrations of a tested compound in blood plasma of a mouse intravenously and intragastrically administrated with the tested compound at different times. The pharmacokinetic behaviors of tested compounds in mice were studied, and the pharmacokinetic characteristics thereof were evaluated.
(§3) Experimental scheme: experimental animals: 18 healthy adult male CD-1 mice (6 to 8 weeks old, and body weight about 30 g) were divided into 6 groups according to the principle of similar body weights: 3 mice in each of IV groups (3 groups), and 3 mice in each of PO groups (3 groups). The animals were purchased from Shanghai Jihui Laboratory Animal Care Co., Ltd.
(§4) Formulation: IV group: taking 10 mL of sample solution for example, 4 mg of sample was weighed, orderly added with 0.5 mL of DMSO and […], then added with […] of HP-p-CD, finally added with water to a constant volume of 10 mL, and stirred and subjected to ultrasonic irradiation, thereby obtaining a 0.4 mg/mL clear solution. PO group: an appropriate amount of sample was weighed, orderly added with appropriate amounts of Labrasol and water in a volume ratio of 10:40, and stirred and subjected to ultrasonic irradiation, thereby obtaining a 1.5 mg/mL uniform solution.
(§5) Administration: after being deprived of food for one night, the IV groups were intravenously administrated with the formulated solutions, respectively, with an injection volume of 5 mL/kg and a dosage of 2 mg/kg. The PO groups were intragastrically administrated with the formulated solutions, respectively, with an injection volume of […] and a dosage of 15 mg/kg.
(§6) Experimental operations: after the intravenous injection groups and the intragastric administration groups of the male CD-1 mice were administrated with the tested compounds, 110 ul of blood was sampled at the following time points: 0.0833, 0.25, 0.5, 1, 2, 4, 6, 8, and 24 hours. The sampled blood was placed into an anticoagulant tube which was added with K2EDTA in advance and preserved in dry ice. The tube was centrifuged for 15 minutes to separate blood plasma, and the separated blood plasma was preserved at −70° C. The animals were allowed to be fed after 4 hours of administration. The LC-MS-MS method was employed to measure the concentration of the tested compounds in the blood plasma after the intravenous and intragastric administration to the mice. The linear range of the method was 1-3000 ng/ml. The blood plasma samples were analyzed after protein precipitation with ACN.

[4] = Pharmacokinetic evaluation on mice, intravenous administration (Test Example 6); format: in vivo; conditions: mouse, plasma, male CD-1 mice, IV 2 mg/kg; for clearance: read-out: Cl (clearance rate) (converted); for half-life: read-out: T1/2 (half-life) (converted); for Vd: read-out: Vd (volume of distribution)
Description: as §2, §3, §4, §5, §6

[5] = system: subcutaneous xenograft tumor model of MIA PaCa-2; test: In vivo pharmacodynamic experiment, tumor growth inhibition (Test Example 5); parameters: species or system BALB/c nude mice; conditions: p.o., QD; for TGI: day 14
Description: Experimental objective: to evaluate the in vivo pharmaceutical effects of tested compounds on the subcutaneous xenograft tumor model of MIA PaCa-2.
Experimental operation: 6 to 8 weeks old female BALB/c nude mice each having the body weight of 18-20 g were chosen. MIA PaCa-2 cells were cultured in DMEM containing 10% FBS, 2.5% HS and 1% penicillin-streptomycin at 37° C. in an incubator with 5% CO2. Cells were collected. The MIA PaCa-2 cells were subcutaneously inoculated to the animals at their backs on the right, 2.0×10^6 cells (0.1 mL) for each animal. When tumor grew to 190-311 mm^3, mice with tumor having a suitable size were chosen and treated in groups, with administration dosages shown in Table 5 below. The animals were weighed on an electronic balance each day. The tumor volume was investigated by using a vernier caliper twice a week. The tumor volume was calculated by the following equation: V=0.5 a×b^2, a and b representing the long diameter and the short diameter of the tumor, respectively. The tumor volume was used to calculate a tumor growth inhibition rate (TGI), and the TGI shown in the form of a percentage was used to indicate the antineoplastic activity of a compound. The TGI was calculated by the following equation: TGI (%)=[1−avTi−0/avCi−0)]×100, with avTi−0 representing the average tumor volume of the group administrated with the compound on a specific day minus the average tumor volume of this group on the day of grouping, and avCi−0 representing the average tumor volume of the solvent control group on a specific day minus the average tumor volume of the solvent control group on the day of grouping. The tumor volume was shown in the form of an average value±standard error of mean (SEM).

SMILES | IC50 [1] | IC50 [2] | bioavailability [3] | Cmax [3] | Tmax [3] | clearance [4] | half-life [4] | Vd [4] | Tumor Volume on Day 14 after Administration ([5]; 1 mg/kg) | TGI ([5]; 1 mg/kg) | Tumor Volume on Day 14 after Administration ([5]; 3 mg/kg) | TGI ([5]; 3 mg/kg) | Tumor Volume on Day 14 after Administration ([5]; 10 mg/kg) | TGI ([5]; 10 mg/kg) | IC50 ([1]; Homo sapiens, NCI-H358, 120 h) | IC50 ([2]; Homo sapiens, A549, 120 h)
C=CC(=O)N1CCN2c3c(c(=O)n(-c4c(C)ccnc4C(C)C)c4nc(-c5c(O)cccc5F)c(F)cc34)N(C)C(=O)[C@H]2C1 (single isomer, unassigned) [Compound Z9-2] | 15 nM | > 10000 nM | 103% | 13200 ng/mL | 1 h | 2.33 mL/min/kg | 1.74 h | 0.326 L/kg |  |  |  |  |  |  |  | 
[2H]C([2H])([2H])N1C(=O)[C@H]2CN(C(=O)C=C)CCN2c2c1c(=O)n(-c1c(C)ccnc1C(C)C)c1nc(-c3c(O)cccc3F)c(Cl)cc21 (single isomer, unassigned) [Compound Z26-2] | 3 nM | > 30000 nM |  |  |  |  |  |  | 157.06 mm^3 | 121.1% | 67.66 mm^3 | 143.8% | 30.49 mm^3 | 151.1% |  | 
C=CC(=O)N1CCN2c3c(c(=O)n(-c4c(C)ccnc4C(C)C)c4nc(-c5c(O)cccc5F)c(Cl)cc34)N(C)C(=O)[C@H]2C1 (single isomer, unassigned) [Compound Z25-2] | 3 nM | > 30000 nM | 93.5% | 6640 ng/mL | 1.93 h | 8.32 mL/min/kg | 1 h | 0.661 L/kg | 180.14 mm^3 | 116.2% | 62.35 mm^3 | 143.7% | 18.94 mm^3 | 154.4% |  | 
C=CC(=O)N1CCN2c3c(c(=O)n(-c4c(C(C)C)ncnc4C(C)C)c4c(F)c(-c5c(O)cccc5F)c(Cl)cc34)NC(=O)[C@H]2C1 (single isomer, unassigned) [Compound Z37-1] | 0.7 nM | > 30000 nM |  |  |  |  |  |  | 286.12 mm^3 | 89.4% | 238.82 mm^3 | 102.8% | 210.59 mm^3 | 108.4% |  | 
C=CC(=O)N1CCN2c3c(c(=O)n(-c4c(C(C)C)ncnc4C(C)C)c4nc(-c5c(O)cccc5F)c(Cl)cc34)N(C)C(=O)[C@H]2C1 [Compound Z48] |  |  | 38.1% | 1250 ng/mL | 0.5 h | 25.5 mL/min/kg | 1.02 h | 1.66 L/kg | 459.33 mm^3 | 51.2% | 148.62 mm^3 | 124.7% | 90.39 mm^3 | 138.5% | 3 nM | > 10000 nM
C=CC(=O)N1C[C@@H]2C(=O)N(C)c3c(c4cc(Cl)c(-c5c(O)cccc5F)nc4n(-c4c(C)ccnc4C(C)C)c3=O)N2C[C@H]1C (single isomer, unassigned) [Compound Z27-2] | 1 nM | 19000 nM | 96.8% | 3660 ng/mL | 1.74 h | 9.83 mL/min/kg | 1.08 h | 0.777 L/kg | 140.10 mm^3 | 126.3% | 54.81 mm^3 | 145.1% | 15.16 mm^3 | 155.8% |  | 
C=CC(=O)N1CCN2c3c(c(=O)n(-c4c(C)ccnc4C(C)C)c4nc(-c5c(O)cccc5F)c(F)cc34)OC[C@H]2C1 [Compound Z1, (4aR)-3-acryloyl-11-fluoro-10-(2-fluoro-6-hydroxyphenyl)-8-(2-isopropyl-4-methylpyridin-3-yl)-1,2,3,4,4a,5-hexahydropyrazino[1′,2′:4,5][1,4]oxazino[2,3-c][1,8]naphthyridin-7(8H)-one] |  |  |  | 2600 ng/mL | 0.25 h |  |  |  |  |  |  |  |  |  | 31 nM | > 10000 nM
C=CC(=O)N1C[C@@H]2C(=O)N(C)c3c(c4cc(F)c(-c5c(O)cccc5F)nc4n(-c4c(C)ccnc4C(C)C)c3=O)N2C[C@H]1C (single isomer, unassigned) [Compound Z10-2] | 4 nM | 24600 nM | 59.2% | 3960 ng/mL | 1 h | 13.5 mL/min/kg | 0.941 h | 1.06 L/kg |  |  |  |  |  |  |  | 
